Consider 20 molecules from patent publication US5434186A, “Carboxylic acid leukotriene B4 antagonists” (Hoffmann-La Roche Inc., priority 1993, dated 1995).

Molecules are shown by their SMILES. pIC50, pKi: −log10 of the molar value. Like-named read-outs stand apart in the source and are kept apart here.

One assay concerns the target T1, LTB4 Receptor (Homo sapiens, UniProt Q15722).
T1 construct: Isolated human neutrophils in Gey's salt solution; endogenous in cells; host or cells: human neutrophils isolated from blood (90-95% neutrophils)
Nature of the assay: LTB4 Receptor Binding Assay (inhibition of 3H-LTB4 binding, human neutrophils). To be noted: 0.5 nM 3H-LTB4, 45 minutes on ice, isolated human neutrophils. As for the experimental part:
Binding assays can be performed in microtiter wells. Isolated human neutrophils in Gey's salt solution are incubated on ice for 45 minutes with 0.5 nM ^3 H-LTB4 in the presence or absence of test compounds. Assays are terminated by adding 12 ml ice cold 50 mM Tris (pH 7.4) followed by rapid filtration under vacuum through GF/C filters. Radioactivity is determined by scintillation counting. Non specific binding is defined as the binding not displaced by 100 fold excess of unlabelled LTB4. Specific binding is defined as the difference between total binding and non-specific binding. Non linear analysis of the binding data is performed using LIGAND (Munson and Rodbard, 1980). Ki (Inhibition Constant) values were determined using the Cheng-Prusoff relationship (Cheng and Prusoff, 1973).
(§1) Human neutrophils are prepared from citrated or heparinized blood. The blood was diluted 1:1 with Hank's balanced salt solution (HBSS) minus calcium and magnesium and underlayed with 10 ml lymphocyte separation medium (Organon Teknika), followed by centrifugation at 500× g for 30 min., at room temperature. Supernatants are removed down to the red blood cell pellet. HBSS minus calcium and magnesium are added to give 25 ml. To this are added 25 ml 6% dextran in 0.85% NaCl. Samples are mixed and allowed to stand 20 min at room temperature. Supernatants are removed and centrifuged at 500× g for 5 min at 4° C. Pellets are resuspended with 20 ml 0.2% saline for 20 sec followed by the addition of 20 ml 1.6% saline. Samples are centrifuged at 500× g for 5 min at 4° C. The lysis is repeated and the cells (90-95% neutrophils) are resuspended at 2× 10^6 cell/ml in GEY's salt solution.

Assay [1] has as its system LTB4 -induced bronchoconstriction. Nature of the assay: Guinea Pig Bronchoconstriction In Vivo (LTB4-induced). Details: species or system guinea pig (Hartley strain). The settings on record: Cavia porcellus, iv, i.v. five minutes prior to LTB4 (1 μg/kg i.v.), read-out: ID50 (mg/kg), i.v., LTB4-induced bronchoconstriction. The procedure: Male guinea pigs (Hartley strain) weighing 300 to 500 g are anesthetized with urethane (2 g/kg) intraperitoneally and a polyethylene cannula is inserted into the jugular vein for drug administration. Tracheal pressure is recorded from a cannula inserted into the trachea and connected to a Gould P23ID pressure transducer. After surgical preparation of the animals, a period of time is allowed for pulmonary functions to stabilize. The test compound is administered intravenously five minutes prior to leukotriene B4 administration according to the following protocol: Animals are paralyzed with succinylcholine (1.2 mg/kg i.v.) and mechanically respirated (Harvard rodent respirator) at 40 breaths/minute and 2.5 cc tidal volume. Propranolol (0.1 mg/kg) is then administered intravenously one minute prior to leukotriene B4 administration. Animals are then challenged with an intermediate constrictory dose of leukotriene B4 (1 μg/kg) delivered intravenously.
The change (cm H2 O) between pre and peak ventilatory pressure readings is averaged for five control and five drug treated animals. The percent inhibition is calculated from the formula:
((Control-Drug Treated)/Control)×100
When representative compounds of formula I of the invention were utilized as the test compounds the following results were obtained: […]

The test system is the same in assay [2]. Described as above. Details: species or system guinea pig (Hartley strain). The settings on record: Cavia porcellus, po, read-out: ID50 (mg/kg), p.o., LTB4-induced bronchoconstriction.
The test system of assay [3] is LTB4 mediated calcium fluxes in human neutrophils. The assay can be described thus: Calcium Flux Assay (inhibition of LTB4 mediated calcium fluxes in human neutrophils). In kind it is cell-based. To be noted: Neutrophil; Fura2 labelled human neutrophils, 2.4 nM LTB4. As for the experimental part: as §1
LTB4 induced changes in intracellular calcium concentration are measured using Fura2 labelled human neutrophils. Cells at a concentration of 2-5×10^6 /ml are labelled with 5 μM Fura2 for 30 minutes in Hank's balanced salt solution without calcium and magnesium. The cells are washed and resuspended at a final concentration of 1-2×10^7 cells/ml in Gey's solution. Calcium fluxes are initiated by the addition of 2.4 nM LTB4. Test compounds at appropriate concentrations are added to the cells just prior to the addition of LTB4. […] Fluorescence measurements are made in a Perkin Elmer model LS-5B spectrofluorimeter at a temperature setting of 37° C. Calcium concentrations are determined using the ratio method (ratio of cell fluorescence to media fluorescence).
When representative compounds of formula I of the invention were tested, the results set forth in Table H and expressed as inhibition of LTB4 mediated calcium fluxes in human neutrophils, were obtained.
(In general: Calcium flux is commonly read through the fluorescence of an indicator in the cells.)

T1 sequence (Q15722 whole entry): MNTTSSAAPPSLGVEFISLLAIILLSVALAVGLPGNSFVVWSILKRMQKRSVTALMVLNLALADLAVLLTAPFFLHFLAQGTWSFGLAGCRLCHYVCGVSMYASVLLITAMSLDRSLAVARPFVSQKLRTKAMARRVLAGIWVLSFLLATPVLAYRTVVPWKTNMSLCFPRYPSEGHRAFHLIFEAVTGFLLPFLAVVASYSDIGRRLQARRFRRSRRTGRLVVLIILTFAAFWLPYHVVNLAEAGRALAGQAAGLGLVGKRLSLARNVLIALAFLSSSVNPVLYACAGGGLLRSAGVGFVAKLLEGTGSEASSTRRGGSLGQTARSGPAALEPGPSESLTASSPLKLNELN

As to `CCCc1c(OCCCCCCc2ccc(CCCCC(=O)O)cc2CCC(=O)O)ccc2c1OCCC2=O` [Example 219, 3-(2-Carboxyethyl)-4-[6-[(3,4-dihydro-4-oxo-8-propyl-2H-1-benzopyran-7-yl)oxy]hexyl]benzenepentanoic Acid], the pKi (in general, the Ki on a negative log10 scale, so that one unit is a factor of ten) at LTB4 Receptor is 9.00. Besides, the ED50 is 0.08 mg/kg in assay [1] and > 10 mg/kg in assay [2].

Regarding `CCCc1c(OCCCCCCc2cccc(OCCCC(C)(C)C(=O)O)c2CCC(=O)O)ccc2c1OCCC2=O` [Example 174, 2-[(4-Carboxy-4-methylpentyl)oxy]-6-[6-[(3,4-dihydro-4-oxo-8-propyl-2H-1-benzopyran-7-yl)oxy]hexyl]benzenepropanoic Acid], the pKi at LTB4 Receptor is 9.00. Also, the ED50 in assay [1] was determined as 0.22 mg/kg; in assay [2], 1.1 mg/kg.

For `CCCCCc1c(OCCCCCOc2ccccc2CCC(=O)O)ccc2c1OCCC2=O` [Example 118, 2-[5-[(3,4-Dihydro-4-oxo-8-pentyl-2H-1-benzopyran-7-yl)oxy]pentyloxy]benzenepropanoic Acid], the pKi on LTB4 Receptor was 6.22. The results for the ED50 in assay [1] and in assay [2] were 0.18 mg/kg and > 10 mg/kg, respectively.

For the molecule `O=C(O)CCCCCOc1cccc(CCCCCCOc2ccc3c(c2CCCc2ccccc2)OCCC3=O)c1CCC(=O)O` [Example 200, 2-[(5-Carboxypentyl)oxy]-6-[6-[[3,4-dihydro-4-oxo-8-(3-phenylpropyl)-2H-1-benzopyran-7-yl]oxy]hexyl]benzenepropanoic Acid], the pKi on LTB4 Receptor was 9.00. Besides, the ED50 in assay [1] is 0.06 mg/kg; in assay [2], 0.16 mg/kg.

In turn, `O=C(O)CCc1ccccc1OCCCCCOc1ccc2c(c1CCCc1ccccc1)OCCC2=O` [Example 195, 2-[[5-[[3,4-Dihydro-4-oxo-8-(3-phenylpropyl)-2H-1-benzopyran-7-yl]oxy]pentyl]oxy]benzenepropanoic Acid] gave a pKi on LTB4 Receptor of 7.02. Further, the ED50 in assay [1] amounted to 0.04 mg/kg; in assay [2], 5.8 mg/kg.

The molecule `CCCc1c(OCCCCCCc2ccc(C(=O)CCCC(=O)O)cc2CCC(=O)O)ccc2c1OCCC2=O` [Example 211, 3-(2-Carboxyethyl)-4-[6-[(3,4-dihydro-4-oxo-8-propyl-2H-1-benzopyran-7-yl)oxy]hexyl]-δ-oxobenzenepentanoic Acid] gave a pKi on LTB4 Receptor of 9.10. In addition, the ED50 in assay [1] amounted to 2.39 mg/kg.

`CCCc1c(OCCCCCOc2ccccc2CCCC(=O)O)ccc2c1OCCC2=O` [Example 145, 2-[5-[(3,4-Dihydro-4-oxo-8-propyl-2H-1-benzopyran-7-yl)oxy]pentyloxy]benzenebutanoic Acid] gave a pKi at LTB4 Receptor of 7.52. The ED50 was 0.56 mg/kg in assay [1] and > 10 mg/kg in assay [2].

In the case of `CCCc1c(OCCCCCOc2ccccc2OCC(=O)O)ccc2c1OCCC2=O` [Example 13, [2-[5-[(3,4-Dihydro-4-oxo-8-propyl-2H-1-benzopyran-7-yl)oxy]pentyloxy]phenoxy]acetic Acid], the pKi at LTB4 Receptor is 7.15. For the same molecule, the ED50 in assay [1] stood at 1.85 mg/kg.

In turn, `CCCc1c(OCCCCCCOc2ccc(C(=O)c3cccc(C(=O)O)c3)cc2CCC(=O)O)ccc2c1OCCC2=O` [Example 22, 5-[(3-Carboxyphenyl)carbonyl]-2-[6-[(3,4-dihydro-4-oxo-8-propyl-2H-1-benzopyran-7-yl)oxy]hexyloxy]benzenepropanoic Acid] had a pKi on LTB4 Receptor of 8.52. The pIC50 (commonly the IC50 on a negative log10 scale, so that one unit is a factor of ten) in assay [3] was 9.00.

On LTB4 Receptor, `CCCc1c(OCCCCCOc2ccc(C(C)=O)cc2CCC(=O)O)ccc2c1OCCC2=O` [Example 33, 5-Acetyl-2-[5-[(3,4-dihydro-4-oxo-8-propyl-2H-1-benzopyran-7-yl)oxy]pentyloxy]benzenepropanoic Acid] showed a negative-log Ki (pKi) of 8.00. Besides, the ED50 in assay [1] turned out to be 1.8 mg/kg.

At LTB4 Receptor, `CCCc1c(OCCCCCOc2ccc(C(=O)c3ccc(C(=O)O)cc3)cc2CCC(=O)O)ccc2c1OCCC2=O` [Example 85, 5-[(4-Carboxyphenyl)carbonyl]-2-[5-[(3,4-dihydro-4-oxo-8-propyl-2H-1-benzopyran-7-yl)oxy]pentyloxy]benzenepropanoic Acid] had a pKi of 8.52. Besides, the ED50 in assay [1] stood at 6.23 mg/kg.

As for `CCCc1c(OCCCCCOc2cc3c(cc2C(C)=O)CCC(C(=O)O)O3)ccc2c1OCCC2=O` (racemic) [Example 11, rac-6-Acetyl-7-[5-[(3,4-dihydro-4-oxo-8-propyl-2H-1-benzopyran-7-yl)oxy]pentyloxy]-3,4-dihydro-2H-1-benzopyran-2-carboxylic Acid], the pIC50 in assay [3] is 6.52.

The molecule `CCCc1c(OCc2cccc(COc3ccccc3CCC(=O)O)c2)ccc2c1OCCC2=O` [Example 39, 2-[3-[[(3,4-Dihydro-4-oxo-8-propyl-2H-1-benzopyran-7-yl)oxy]methyl]phenylmethoxy]benzenepropanoic Acid] gave a pKi on LTB4 Receptor of 7.00. Also, the ED50 in assay [1] is 5.4 mg/kg.

On LTB4 Receptor, `CCCc1c(OCCCCCOc2ccc3ccc(OCC(=O)O)cc3c2CCC(=O)O)ccc2c1OCCC2=O` [Example 226, 7-(Carboxymethoxy)-2-[[5-[(3,4-dihydro-4-oxo-8-propyl-2H-1-benzopyran-7-yl)oxy]pentyl]oxy]-1-naphthalenepropanoic Acid] gave a pKi of 9.00. Moreover, the ED50 in assay [1] came to 4.4 mg/kg.

`O=C(O)CCc1ccccc1OCCCCCOc1ccc2c(c1Cc1ccccc1)OCCC2=O` [Example 73, 2-[5-[[3,4-Dihydro-4-oxo-8-(phenylmethyl)-2H-1-benzopyran-7-yl]oxy]pentyloxy]benzenepropanoic Acid] gave a pKi at LTB4 Receptor of 6.82. The ED50 is 0.13 mg/kg in assay [1] and > 10 mg/kg in assay [2].

At LTB4 Receptor, `CCCc1c(OCCCCCOc2ccc(CCCCC(=O)O)cc2CCC(=O)O)ccc2c1OCCC2=O` [Example 215, 3-(2-Carboxyethyl)-4-[[5-[(3,4-dihydro-4-oxo-8-propyl-2H-1-benzopyran-7-yl)oxy]pentyl]oxy]benzenepentanoic Acid] gave a pKi of 8.52. Moreover, the ED50 in assay [1] was determined as 0.24 mg/kg; in assay [2], 4.65 mg/kg.

`CCCc1c(OCCCCCOc2cccc(CCC(=O)O)c2)ccc2c1OCCC2=O` [Example 68, 3-[5-[(3,4-Dihydro-4-oxo-8-propyl-2H-1-benzopyran-7-yl)oxy]pentyloxy]benzenepropanoic Acid] showed a pKi at LTB4 Receptor of 7.22. In addition, the ED50 in assay [1] is 3.56 mg/kg.

With `CCCc1c(OCCCCCCc2ccccc2CCC(=O)O)ccc2c1OCCC2=O` [Example 37, 2-[6-[(3,4-Dihydro-4-oxo-8-propyl-2H-1-benzopyran-7-yl)oxy]hexyl]benzenepropanoic Acid], the values for the ED50 in assay [1] and in assay [2] were 0.45 mg/kg and > 10 mg/kg, respectively.

With `CCCc1c(OCCCCCOc2ccc(CCC(=O)O)cc2CCC(=O)O)ccc2c1OCCC2=O` [Example 163, 4-[5-[(3,4-Dihydro-4-oxo-8-propyl-2H-1-benzopyran-7-yl)oxy]pentyloxy]-1,3-benzenedipropanoic Acid], the pKi at LTB4 Receptor was 8.52. For the same molecule, in assay [1], the ED50 came to 3.11 mg/kg.

`CCCc1c(OCCCCCOc2ccc(OCCCCC(=O)O)cc2CCC(=O)O)ccc2c1OCCC2=O` [Example 58, 5-(4-Carboxybutoxy)-2-[5-[(3,4-dihydro-4-oxo-8-propyl-2H-1-benzopyran-7-yl)oxy]pentyloxy]benzenepropanoic Acid Hemihydrate] gave a pKi at LTB4 Receptor of 8.40. Also, the ED50 in assay [1] came out at 5.09 mg/kg.
